Experimental findings from US11220483B2, “Tetrahydro-benzo[d]azepine derivatives as GPR120 modulators” (CALDAN THERAPEUTICS LIMITED, priority 2018, dated 2022) are described below.

The experiment concerns the target T1, human GPR120 (Homo sapiens, UniProt Q5NUL3).
T1 construct: expressed in transfected cells; host or cells: HEK293T, transient transfection with PEI
T1 sequence (Q5NUL3 1-361): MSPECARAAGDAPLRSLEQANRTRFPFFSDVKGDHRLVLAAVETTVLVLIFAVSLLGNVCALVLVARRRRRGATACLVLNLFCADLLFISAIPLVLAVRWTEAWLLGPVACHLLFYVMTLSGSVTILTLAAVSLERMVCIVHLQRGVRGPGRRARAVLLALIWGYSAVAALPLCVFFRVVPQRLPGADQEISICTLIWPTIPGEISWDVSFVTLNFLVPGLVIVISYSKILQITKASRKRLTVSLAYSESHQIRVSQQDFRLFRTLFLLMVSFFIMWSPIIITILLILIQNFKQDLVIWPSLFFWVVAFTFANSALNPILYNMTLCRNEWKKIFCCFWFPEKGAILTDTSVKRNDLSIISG
Description: Human GPR120-β Arrestin 2 BRET agonist assay. The class given is cell-based. The note with it: HEK293T cells transiently co-expressing hGPR120-eYFP and β-arrestin 2-RLuc; BRET normalised to DMSO (0%) and TUG-891 (100%); read-out: hGPR120 pEC50 (converted). The procedure:
pEC50 data was obtained by the following procedure:
Human GPR120-β Arrestin 2 Bio-Luminescence Resonance Energy Transfer (BRET) Agonist Assay Procedure
HEK293T cells were cultured in growth media composed of DMEM L-glutamine media supplemented with 10% (v:v) fetal bovine serum (FBS) and 1% (v:v) 10,000 units penicillin/10 mgml^−1 streptomycin at 37° C., 5% CO2. HEK293T cells transiently co-expressing human GPR120 […] and b-arrestin 2 were generated by transfection with plasmids encoding a construct of hGPR120 […] fused at its C terminal with enhanced yellow fluorescent protein (eYFP), and another encoding β-arrestin 2 fused to Renilla luciferase (RLuc), using Polyethylenimine (PEI) as the transfection reagent.
Transfected cells were cryopreserved in batches for consistency between replicate assays. Twenty-four hours post transfection, cells were harvested with non-enzymatic cell dissociation buffer and re-suspended in DMEM medium supplemented with 10% DMSO and 10% FBS before being transferred first to −80° C. overnight and then to liquid nitrogen for long-term storage. On the day prior to the assay, cells were thawed at 37° C. and re-suspended in growth media. A 96 well white opaque bottom microtitre plate was then seeded with 40,000 cells in a volume of 100 μl growth media per well and seeded plates were then incubated overnight at 37° C., 5% CO2. On the day of the BRET experiment, cells were washed twice with BRET assay buffer (Hanks balanced salt solution (HBSS) supplemented with 10 mM HEPES (pH 7.4)), then 80 μl per well of BRET assay buffer was added before the plate was incubated for 30 minutes at 37° C., 5% CO2. Then, Renilla luciferase substrate coelenterazine h (5 μM) was added to the cells and incubated at 37° C. for 10 minutes before the addition of GPR120 agonist (TUG-891) or test compound for a further 5 minutes at 37° C.
Bio-luminescence at λ 535 nm and λ 475 nm was then measured with a Pherastar FsX instrument, and the λ 535/λ 475 ratio of bio-luminescence was then used to calculate a BRET value. hGPR120 agonist potency values (pEC50) were calculated by normalising the BRET values to the DMSO vehicle (0% control) and TUG-891 (100% control) and then fitting the normalised data to a 3-parameter concentration-response curve.
A general note: BRET reads energy transfer from a luciferase to a nearby fluorophore.

As to `CC(Cc1ccc2c(c1)CCN(c1cc(OC3CCC3)ccc1F)C2)C(=O)O` (racemic) [Compound 27, 3-(2-(5-cyclobutoxy-2-fluorophenyl)-1,2,3,4-tetrahydroisoquinolin-6-yl)-2-methylpropanoic acid], the EC50 is 0.1 µM.

`O=C(O)C1CC1c1ccc2c(c1)CCN(c1cc(OC3CCC3)ccc1F)C2` (racemic) [Compound 34, 2-(2-(5-cyclobutoxy-2-fluorophenyl)-1,2,3,4-tetrahydroisoquinolin-6-yl)cyclopropanecarboxylic Acid]: the EC50 is 0.158 µM.

Regarding `O=C(O)C1CC1c1ccc2c(c1)CCN(c1cc(OC3CCC3)ccc1F)C2` (single isomer, unassigned) [34 isomer 1], the EC50 is 0.158 µM.

With `O=C(O)C1CC1c1ccc2c(c1)CCN(c1cc(OC3CCC3)ccc1F)C2` (single isomer, unassigned) [34 isomer 2], the EC50 is 0.0794 µM.

`O=C(O)C1CC1c1ccc2c(c1)CCN(c1nc(OC3CCC3)ccc1F)C2` (single isomer, unassigned) [37 Isomer 1]: the EC50 was 0.0631 µM.

Consider `O=C(O)C1CC1c1ccc2c(c1)CCN(c1cccc(Oc3ccccc3)c1)C2` (single isomer, unassigned) [38 isomer 1], for which the EC50 is 0.0501 µM.

As for `O=C(O)C1CC1c1ccc2c(c1)CCN(c1cccc(Oc3ccccc3)c1)C2` (single isomer, unassigned) [38 isomer 2], the EC50 was 0.0398 µM.

Regarding `O=C(O)CCc1ccc2c(c1)CCN(c1cc(OC(F)(F)F)ccc1F)C2` [Compound 1, 3-(2-(2-Fluoro-5-(trifluoromethoxy)phenyl)-1,2,3,4-tetrahydroisoquinolin-6-yl)propanoic Acid], the EC50 was 0.0398 µM.

Consider `CO[C@H]1C[C@H](Oc2ccc(F)c(N3CCc4cc(CCC(=O)O)ccc4C3)c2)C1` [Compound 2, 3-(2-(2-fluoro-5-((1r,3r)-3-methoxycyclobutoxy)phenyl)-1,2,3,4-tetrahydroisoquinolin-6-yl)propanoic acid], for which the EC50 was 0.158 µM.

As to `O=C(O)CCc1ccc2c(c1)CCN(c1cc(OC3CCC3)cc(F)c1F)C2` [Compound 3, 3-(2-(5-cyclobutoxy-2,3-difluorophenyl)-1,2,3,4-tetrahydroisoquinolin-6-yl)propanoic acid], the EC50 was 0.01 µM.

For the molecule `O=C(O)CCc1ccc2c(c1)CCN(c1ccccc1Oc1ccccc1)C2` [Compound 4, 3-(2-(2-phenoxyphenyl)-1,2,3,4-tetrahydroisoquinolin-6-yl)propanoic acid], the EC50 is 0.158 µM.

Turning to `O=C(O)CCc1ccc2c(c1)CCN(c1cccnc1OC1CCC1)C2` [Compound 5, 3-(2-(2-cyclobutoxypyridin-3-yl)-1,2,3,4-tetrahydroisoquinolin-6-yl)propanoic acid], the EC50 was 7.94 µM.

For the molecule `N#Cc1ccc(OC(F)(F)F)cc1N1CCc2cc(CCC(=O)O)ccc2C1` [Compound 6, 3-(2-(2-cyano-5-(trifluoromethoxy)phenyl)-1,2,3,4-tetrahydroisoquinolin-6-yl)propanoic acid], the EC50 is 0.0794 µM.

On to `O=C(O)CCc1ccc2c(c1)CCN(c1nc(OC3CCC3)ccc1F)C2` [Compound 7, 3-(2-(6-cyclobutoxy-3-fluoropyridin-2-yl)-1,2,3,4-tetrahydroisoquinolin-6-yl)propanoic acid], for which the EC50 was 0.0158 µM.

Regarding `O=C(O)CCc1ccc2c(c1)CCN(c1ncc(F)c(OC3CCC3)n1)C2` [Compound 8, 3-(2-(4-cyclobutoxy-5-fluoropyrimidin-2-yl)-1,2,3,4-tetrahydroisoquinolin-6-yl)propanoic acid], the EC50 was 0.0631 µM.

For the molecule `O=C(O)CCc1ccc2c(c1)CCN(c1cc(Oc3ccccc3)ccc1F)C2` [Compound 9, 3-(2-(2-fluoro-5-phenoxyphenyl)-1,2,3,4-tetrahydroisoquinolin-6-yl)propanoic acid], the EC50 is 0.02 µM.

Take `O=C(O)CCc1ccc2c(c1)CCN(c1cccc(OC(F)(F)F)c1)C2` [Compound 10, 3-(2-(3-(Trifluoromethoxy)phenyl)-1,2,3,4-tetrahydroisoquinolin-6-yl)propanoic Acid]: the EC50 was 0.158 µM.

For `O=C(O)CCc1ccc2c(c1)CCN(c1cc(OC3CCC3)ccc1Cl)C2` [Compound 11, 3-(2-(2-chloro-5-cyclobutoxyphenyl)-1,2,3,4-tetrahydroisoquinolin-6-yl)propanoic acid], the EC50 was 0.0501 µM.

As for `O=C(O)CCc1ccc2c(c1)CCN(c1cccc(OC3CCC3)c1)C2` [Compound 12, 3-(2-(3-cyclobutoxyphenyl)-1,2,3,4-tetrahydroisoquinolin-6-yl)propanoic acid], the EC50 is 0.158 µM.

Turning to `O=C(O)CCc1ccc2c(c1)CCN(c1cc(OC3CCC3)ccc1F)C2` [Compound 13, 3-(2-(5-cyclobutoxy-2-fluorophenyl)-1,2,3,4-tetrahydroisoquinolin-6-yl)propanoic acid], the EC50 is 0.02 µM.

`Cc1ccc(OC2CCC2)cc1N1CCc2cc(CCC(=O)O)ccc2C1` [Compound 14, 3-(2-(5-cyclobutoxy-2-methylphenyl)-1,2,3,4-tetrahydroisoquinolin-6-yl)propanoic acid]: the EC50 is 0.0501 µM.

In the case of `CC1(C)Cc2cc(Cl)cc(N3CCc4cc(CCC(=O)O)ccc4C3)c2O1` [Compound 15, 3-(2-(5-chloro-2,2-dimethyl-2,3-dihydrobenzofuran-7-yl)-1,2,3,4-tetrahydroisoquinolin-6-yl)propanoic acid], the EC50 was 0.631 µM.

Consider `O=C(O)CCc1ccc2c(c1)CCN(c1cccc(C(F)(F)F)c1)C2` [Compound 16, 3-(2-(3-(trifluoromethyl)phenyl)-1,2,3,4-tetrahydroisoquinolin-6-yl)propanoic acid], for which the EC50 is 0.501 µM.

On to `N#Cc1ccc(N2CCc3cc(CCC(=O)O)ccc3C2)cc1` [Compound 17, 3-(2-(4-cyanophenyl)-1,2,3,4-tetrahydroisoquinolin-6-yl)propanoic acid], for which the EC50 is 7.94 µM.

`O=C(O)CCc1ccc2c(c1)CCN(c1ccnc(C3CC3)n1)C2` [Compound 18, 3-(2-(2-cyclopropylpyrimidin-4-yl)-1,2,3,4-tetrahydroisoquinolin-6-yl)propanoic acid]: the EC50 is 25.1 µM.

On to `O=C(O)CCc1ccc2c(c1)CCN(c1cc(F)cc(OC3CCC3)c1)C2` [Compound 19, 3-(2-(3-cyclobutoxy-5-fluorophenyl)-1,2,3,4-tetrahydroisoquinolin-6-yl)propanoic acid], for which the EC50 was 0.0251 µM.

Consider `O=C(O)CCc1ccc2c(c1)CCN(c1cccc(Oc3ccccc3)c1)C2` [Compound 20, 3-(2-(3-phenoxyphenyl)-1,2,3,4-tetrahydroisoquinolin-6-yl)propanoic acid], for which the EC50 was 0.0251 µM.

As for `O=C(O)CCc1ccc2c(c1)CCN(c1cccc(OC3CCC3)n1)C2` [Compound 21, 3-(2-(6-cyclobutoxypyridin-2-yl)-1,2,3,4-tetrahydroisoquinolin-6-yl)propanoic acid], the EC50 is 0.0398 µM.

Take `O=C(O)CCc1ccc2c(c1)CCN(c1cccc(OC(F)(F)F)n1)C2` [Compound 22, 3-(2-(6-(trifluoromethoxy)pyridin-2-yl)-1,2,3,4-tetrahydroisoquinolin-6-yl)propanoic acid]: the EC50 was 0.316 µM.

Take `O=C(O)CCc1ccc2c(c1)CCN(c1cccc(-c3ccccc3)c1)C2` [Compound 23, 3-(2-([1,1′-biphenyl]-3-yl)-1,2,3,4-tetrahydroisoquinolin-6-yl)propanoic acid]: the EC50 was 0.398 µM.

With `O=C(O)CCc1ccc2c(c1)CCN(c1cc(F)cc(-c3ccccc3)c1)C2` [Compound 24, 3-(2-(5-fluoro-[1,1′-biphenyl]-3-yl)-1,2,3,4-tetrahydroisoquinolin-6-yl)propanoic acid], the EC50 is 0.398 µM.

In the case of `COc1cc(OC(F)(F)F)cc(N2CCc3cc(CCC(=O)O)ccc3C2)c1` [Compound 25, 3-(2-(3-methoxy-5-(trifluoromethoxy)phenyl)-1,2,3,4-tetrahydroisoquinolin-6-yl)propanoic acid], the EC50 is 0.0631 µM.
